Source: patent US6624182B1, “Hydroxyphenylvinylthiazoles” (Ciba Specialty Chemicals Corporation, priority 1999, dated 2003)

Key:
Experiment in all cases: Determination of the minimum inhibitory concentration (MIC value) in microtitre plates
[1] = tested on: S. aureus; type: cell-based; conditions: optical density at 620 nm, 48 hours at 37° C., MIC = ≦20% growth; tested at 100; 10 and 1 ppm (approximate values); (2), (3), (4) at 120; 60; 30; 15; 7.5; 3.75 ppm
In short: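 DMSO-dissolved compounds were tested in 1:2 serial dilutions against bacteria in CASO bouillon, from inocula of 1−5×10^6 KBE/ml diluted 1:100. Growth was read by OD 620 nm after 48 h at 37 °C. MIC was the lowest concentration giving ≦20% growth versus the growth control, tested in duplicate.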

[2] = tested on: A. niger; type: cell-based, Aspergillus niger ATCC 6275; conditions: optical density at 620 nm, 5 days at 28° C., MIC = ≦20% growth; tested at 100; 10 and 1 ppm (approximate values); (2), (3), (4) at 120; 60; 30; 15; 7.5; 3.75 ppm
In short: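 A. niger ATCC 6275 spores, adjusted to 1−5×10^6 KBE/ml and diluted 1:100 in Sabouraud 2% glucose bouillon, were exposed to 2-fold dilutions of DMSO-dissolved compounds for 5 days at 28°C. Growth read as OD at 620 nm. MIC is the lowest concentration giving ≤20% growth versus growth control, tested in duplicate.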

[3] = tested on: E. coli; type: cell-based, Escherichia coli NCTC 8196; conditions: optical density at 620 nm, 48 hours at 37° C., MIC = ≦20% growth; tested at 100; 10 and 1 ppm (approximate values); (2), (3), (4) at 120; 60; 30; 15; 7.5; 3.75 ppm
In short: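 E. coli NCTC 8196 grown overnight in CASO bouillon, adjusted to 1−5×10^6 KBE/ml, diluted 1:100 and added to DMSO-dissolved compounds in 1:2 dilution series. Incubated 48 h at 37° C; growth read as OD 620 nm. MIC is the lowest concentration giving ≤20% growth versus growth control; duplicates.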

[4] = tested on: P. aeruginosa; type: cell-based, Pseudomonas aeruginosa CIP A-22; conditions: optical density at 620 nm, 48 hours at 37° C., MIC = ≦20% growth; tested at 100; 10 and 1 ppm (approximate values); (2), (3), (4) at 120; 60; 30; 15; 7.5; 3.75 ppm
In short: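 P. aeruginosa CIP A-22 at 1−5×10^6 KBE/ml, diluted 1:100 in CASO bouillon, exposed to 1:2 serial dilutions of DMSO-dissolved compound for 48 h at 37 °C, in duplicate. Growth read by OD 620 nm; MIC is the lowest concentration giving ≤20% growth relative to growth control.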

[5] = tested on: C. albicans; type: cell-based, Candida albicans ATCC 10231; conditions: optical density at 620 nm, 48 hours at 37° C., MIC = ≦20% growth; tested at 100; 10 and 1 ppm (approximate values); (2), (3), (4) at 120; 60; 30; 15; 7.5; 3.75 ppm
In short: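 Candida albicans ATCC 10231 grown overnight in CASO broth, adjusted to 1–5×10^6 CFU/ml then diluted 1:100, was exposed to 1:2 serial dilutions of compound (DMSO) for 48 h at 37 °C. Growth was read as OD620; MIC was the concentration giving ≤20% growth versus control, tested in duplicate.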

COc1cc(/C=C/c2nc(-c3ccccc3)cs2)ccc1O [Compound of formula (54)]
>100 ppm: MIC values in ppm S. aureus [1] | MIC values in ppm A. niger [2] | MIC values in ppm E. coli [3] | MIC values in ppm P. aeruginosa [4] | MIC values in ppm C. albicans [5]

COc1cc(/C=C/c2nc(-c3ccccc3)cs2)cc(O)c1OC [Compound of formula (57)]
>100 ppm: MIC values in ppm S. aureus [1] | MIC values in ppm A. niger [2] | MIC values in ppm E. coli [3] | MIC values in ppm P. aeruginosa [4] | MIC values in ppm C. albicans [5]

CCOc1cc(/C=C/c2nc(CC)cs2)ccc1O [Compound of formula (42)]
>100 ppm: MIC values in ppm S. aureus [1] | MIC values in ppm A. niger [2] | MIC values in ppm E. coli [3] | MIC values in ppm P. aeruginosa [4] | MIC values in ppm C. albicans [5]

Oc1ccccc1/C=C/c1nc(-c2ccc(N3CCCC3)cc2)cs1 [Compound of formula (33)]
>100 ppm: MIC values in ppm S. aureus [1] | MIC values in ppm A. niger [2] | MIC values in ppm E. coli [3] | MIC values in ppm P. aeruginosa [4] | MIC values in ppm C. albicans [5]

CC(C)(C)c1csc(/C=C/c2ccc(O)cc2)n1 [Compound of formula (16)]
>100 ppm: MIC values in ppm S. aureus [1] | MIC values in ppm A. niger [2] | MIC values in ppm E. coli [3] | MIC values in ppm P. aeruginosa [4] | MIC values in ppm C. albicans [5]

COc1cc(O)ccc1/C=C/c1nc(-c2ccc(F)cc2)cs1 [Compound of formula (15)]
>100 ppm: MIC values in ppm S. aureus [1] | MIC values in ppm A. niger [2] | MIC values in ppm E. coli [3] | MIC values in ppm P. aeruginosa [4] | MIC values in ppm C. albicans [5]

COc1ccc(/C=C/c2nc(-c3ccc(N4CCCC4)cc3)cs2)cc1O [Compound of formula (29)]
>100 ppm: MIC values in ppm S. aureus [1] | MIC values in ppm A. niger [2] | MIC values in ppm E. coli [3] | MIC values in ppm P. aeruginosa [4] | MIC values in ppm C. albicans [5]

CCOc1cc(/C=C/c2nc(C(C)(C)C)cs2)ccc1O [Compound of formula (19)]
>100 ppm: MIC values in ppm S. aureus [1] | MIC values in ppm A. niger [2] | MIC values in ppm E. coli [3] | MIC values in ppm P. aeruginosa [4] | MIC values in ppm C. albicans [5]

COc1ccc(/C=C/c2nc(-c3ccc(F)cc3)cs2)cc1O [Compound of formula (6)]
>100 ppm: MIC values in ppm S. aureus [1] | MIC values in ppm A. niger [2] | MIC values in ppm E. coli [3] | MIC values in ppm P. aeruginosa [4] | MIC values in ppm C. albicans [5]

CCc1csc(/C=C/c2cc(C)c(O)c(C)c2)n1 [Compound of formula (47)]
>100 ppm: MIC values in ppm S. aureus [1] | MIC values in ppm A. niger [2] | MIC values in ppm E. coli [3] | MIC values in ppm P. aeruginosa [4] | MIC values in ppm C. albicans [5]

COc1ccc(/C=C/c2nc(C(C)(C)C)cs2)c(O)c1 [Compound of formula (21)]
>100 ppm: MIC values in ppm S. aureus [1] | MIC values in ppm A. niger [2] | MIC values in ppm E. coli [3] | MIC values in ppm P. aeruginosa [4] | MIC values in ppm C. albicans [5]

Oc1cc(OCc2ccccc2)ccc1/C=C/c1nc(-c2ccccc2)cs1 [Compound of formula (60)]
>100 ppm: MIC values in ppm S. aureus [1] | MIC values in ppm A. niger [2] | MIC values in ppm E. coli [3] | MIC values in ppm P. aeruginosa [4] | MIC values in ppm C. albicans [5]

COc1ccc(/C=C/c2nc(-c3ccc(F)cc3)cs2)c(O)c1 [Compound of formula (9)]
>100 ppm: MIC values in ppm S. aureus [1] | MIC values in ppm A. niger [2] | MIC values in ppm E. coli [3] | MIC values in ppm P. aeruginosa [4] | MIC values in ppm C. albicans [5]

Oc1ccccc1/C=C/c1nc(-c2ccc(F)cc2)cs1 [Compound of formula (10)]
>100 ppm: MIC values in ppm S. aureus [1] | MIC values in ppm A. niger [2] | MIC values in ppm E. coli [3] | MIC values in ppm P. aeruginosa [4] | MIC values in ppm C. albicans [5]

CCc1csc(/C=C/c2ccc(OCc3ccccc3)cc2O)n1 [Compound of formula (49)]
>100 ppm: MIC values in ppm S. aureus [1] | MIC values in ppm A. niger [2] | MIC values in ppm E. coli [3] | MIC values in ppm P. aeruginosa [4] | MIC values in ppm C. albicans [5]

COc1cc(/C=C/c2nc(C(C)(C)C)cs2)cc(O)c1OC [Compound of formula (22)]
>100 ppm: MIC values in ppm S. aureus [1] | MIC values in ppm A. niger [2] | MIC values in ppm E. coli [3] | MIC values in ppm P. aeruginosa [4] | MIC values in ppm C. albicans [5]

COc1ccc(/C=C/c2nc(-c3ccccc3)cs2)c(O)c1 [Compound of formula (55)]
>100 ppm: MIC values in ppm S. aureus [1] | MIC values in ppm A. niger [2] | MIC values in ppm E. coli [3] | MIC values in ppm P. aeruginosa [4] | MIC values in ppm C. albicans [5]

CCOc1cc(/C=C/c2nc(-c3ccccc3)cs2)ccc1O [Compound of formula (53)]
>100 ppm: MIC values in ppm S. aureus [1] | MIC values in ppm A. niger [2] | MIC values in ppm E. coli [3] | MIC values in ppm P. aeruginosa [4] | MIC values in ppm C. albicans [5]

COc1cc(/C=C/c2nc(-c3ccc(N4CCCC4)cc3)cs2)ccc1O [Compound of formula (31)]
>100 ppm: MIC values in ppm S. aureus [1] | MIC values in ppm A. niger [2] | MIC values in ppm E. coli [3] | MIC values in ppm P. aeruginosa [4] | MIC values in ppm C. albicans [5]

COc1ccc(/C=C/c2nc(C(C)(C)C)cs2)cc1O [Compound of formula (18)]
>100 ppm: MIC values in ppm S. aureus [1] | MIC values in ppm A. niger [2] | MIC values in ppm E. coli [3] | MIC values in ppm P. aeruginosa [4] | MIC values in ppm C. albicans [5]
